For this experiment, the target named is human RIP1 kinase domain (2-375) (Homo sapiens (Human), UniProt Q13546). As to the kind of experiment: biochemical. The class given is biochemical. The settings on record: tight-binding apparent inhibition constant; human RIP1 kinase domain (2-375) 50 nM, 50 uM ATP, 2 hours; read-out: Ki. In short, it runs like this: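 50 nM purified kinase domain from baculovirus-infected insect cells, incubated 2 h with compound in 50 mM Hepes pH 7.5, 30 mM MgCl2, 1 mM DTT, 50 uM ATP, 0.002% Brij-35, 0.5% DMSO. ADP formation read by Transcreener FP at 633 nm excitation. Ki^app fitted with the Morrison tight-binding equation.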
Sequence of human RIP1 kinase domain (2-375) (Q13546 2-375): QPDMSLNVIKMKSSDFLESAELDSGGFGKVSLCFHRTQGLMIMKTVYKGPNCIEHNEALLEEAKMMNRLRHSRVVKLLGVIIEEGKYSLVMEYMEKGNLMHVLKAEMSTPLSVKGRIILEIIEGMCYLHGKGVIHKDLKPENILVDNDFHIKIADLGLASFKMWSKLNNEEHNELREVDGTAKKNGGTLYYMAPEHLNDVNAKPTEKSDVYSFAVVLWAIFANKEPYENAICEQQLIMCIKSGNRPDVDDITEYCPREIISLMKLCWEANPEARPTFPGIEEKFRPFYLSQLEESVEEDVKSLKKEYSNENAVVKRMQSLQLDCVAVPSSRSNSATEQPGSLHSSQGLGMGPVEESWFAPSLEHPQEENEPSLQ
Take `Cc1cc(F)c2c(c1)OC[C@H](NC(=O)c1nc3cccc(C(F)(F)F)n3n1)C(=O)N2` [Example 419, (S)—N-(6-fluoro-8-methyl-4-oxo-2,3,4,5-tetrahydrobenzo[b][1,4]oxazepin-3-yl)-5-(trifluoromethyl)-[1,2,4]triazolo[1,5-a]pyridine-2-carboxamide]: the Ki amounted to 9.4 nM.
Regarding `CC(C)c1cccc2nc(C(=O)N[C@H]3CCc4cc(F)cc(F)c4NC3=O)nn12` [Example 420, (S)—N-(7,9-difluoro-2-oxo-2,3,4,5-tetrahydro-1H-benzo[b]azepin-3-yl)-5-isopropyl-[1,2,4]triazolo[1,5-a]pyridine-2-carboxamide], the Ki is 4.71 nM.
The result for `Cn1cc(-c2cccc3nc(C(=O)N[C@H]4COc5cc(F)cc(F)c5NC4=O)nn23)cn1` [Example 421, (S)—N-(6,8-difluoro-4-oxo-2,3,4,5-tetrahydrobenzo[b][1,4]oxazepin-3-yl)-5-(1-methyl-1H-pyrazol-4-yl)-[1,2,4]triazolo[1,5-a]pyridine-2-carboxamide] reads 15.9 nM.
For `O=C(N[C@H]1COc2cc(F)cc(F)c2NC1=O)c1nc2cccc(C3CCOCC3)n2n1` [Example 422, (S)—N-(6,8-difluoro-4-oxo-2,3,4,5-tetrahydrobenzo[b][1,4]oxazepin-3-yl)-5-(tetrahydro-2H-pyran-4-yl)-[1,2,4]triazolo[1,5-a]pyridine-2-carboxamide], the Ki is 27.4 nM.
Turning to `Cc1cc(F)c2c(c1)OC[C@H](NC(=O)c1nc3cccc(C(C)C)n3n1)C(=O)N2` [Example 423, (S)—N-(6-fluoro-8-methyl-4-oxo-2,3,4,5-tetrahydrobenzo[b][1,4]oxazepin-3-yl)-5-isopropyl-[1,2,4]triazolo[1,5-a]pyridine-2-carboxamide], the Ki turned out to be 3.4 nM.
Turning to `CC(C)c1cccc2nc(C(=O)N[C@H]3COc4cc(F)cc(F)c4NC3=O)nn12` [Example 424, (S)—N-(6,8-difluoro-4-oxo-2,3,4,5-tetrahydrobenzo[b][1,4]oxazepin-3-yl)-5-isopropyl-[1,2,4]triazolo[1,5-a]pyridine-2-carboxamide], the Ki worked out at 3 nM.
The result for `Cn1cc(C2CCCc3nc(C(=O)N[C@H]4CCc5cc(F)cc(F)c5NC4=O)nn32)cn1` (stereo partly drawn) [Example 433, N—((S)-7,9-difluoro-2-oxo-2,3,4,5-tetrahydro-1H-benzo[b]azepin-3-yl)-5-(1-methyl-1H-pyrazol-4-yl)-5,6,7,8-tetrahydro-[1,2,4]triazolo[1,5-a]pyridine-2-carboxamide] reads 143 nM; that for `CN1C(=O)[C@@H](NC(=O)c2nc3c(-c4ccccc4)nccn3n2)COc2ccccc21` [Example 442, (S)—N-(5-methyl-4-oxo-2,3,4,5-tetrahydrobenzo[b][1,4]oxazepin-3-yl)-8-phenyl-[1,2,4]triazolo[1,5-a]pyrazine-2-carboxamide], 7.83 nM; that for `CN1C(=O)C(NC(=O)c2ncn(Cc3ccccc3)n2)CCn2nc(CN3CCOCC3)cc21` (stereo not shown) [Example 443, 1-benzyl-N-(4-methyl-2-(morpholinomethyl)-5-oxo-5,6,7,8-tetrahydro-4H-pyrazolo[1,5-a][1,3]diazepin-6-yl)-1H-1,2,4-triazole-3-carboxamide], 299 nM.
`CN1C(=O)[C@@H](NC(=O)c2nc3n(n2)CCNC3c2ccccc2)COc2ccccc21` (stereo partly drawn) [Example 452, N—((S)-5-methyl-4-oxo-2,3,4,5-tetrahydrobenzo[b][1,4]oxazepin-3-yl)-8-phenyl-5,6,7,8-tetrahydro-[1,2,4]triazolo[1,5-a]pyrazine-2-carboxamide]: the Ki was determined as 206 nM.
As to `CN1C(=O)[C@@H](NC(=O)c2nnc(Cc3ccccc3)[nH]2)CCn2nc3c(c21)CS(=O)(=O)C3` [Example 453, (S)-5-Benzyl-N-(1-methyl-9,9-dioxido-2-oxo-1,2,3,4,5,10-hexahydro-8H-thieno[3′,4′:3,4]pyrazolo[1,5-a][1,3]diazepin-3-yl)-4H-1,2,4-triazole-3-carboxamide], the Ki was 301 nM.
The value for `CN1C(=O)C(NC(=O)c2ncn(Cc3ccccc3)n2)CCn2nc(C3CCC3)cc21` (stereo not shown) [Example 454, 1-Benzyl-N-(2-cyclobutyl-4-methyl-5-oxo-5,6,7,8-tetrahydro-4H-pyrazolo[1,5-a][13]diazepin-6-yl)-1H-1,2,4-triazole-3-carboxamide] was 46 nM.
The result for `CC(C)c1cc2n(n1)CCC(NC(=O)c1ncn(Cc3ccccc3)n1)C(=O)N2C` (stereo not shown) [Example 455, 1-Benzyl-N-(2-isopropyl-4-methyl-5-oxo-5,6,7,8-tetrahydro-4H-pyrazol[1,5-a][1,3]diazepin-6-yl)-1H-1,2,4-triazole-3-carboxamide] reads 60 nM.
The result for `CN1C(=O)C(NC(=O)c2ncn(Cc3ccccc3)n2)CCn2nc(CC3CC3)cc21` (stereo not shown) [Example 456, 1-Benzyl-N-(2-(cyclopropylmethyl)-4-methyl-5-oxo-5,6,7,8-tetrahydro-4H-pyrazol[1,5-a][1,3]diazepin-6-yl)-1H-1,2,4-triazole-3-carboxamide] reads 51 nM; that for `CC(C)c1cc2n(n1)CC[C@H](NC(=O)c1ncn(Cc3ccccc3)n1)C(=O)N2C` [Example 458, (S)-1-Benzyl-N-(2-isopropyl-4-methyl-5-oxo-5,6,7,8-tetrahydro-4H-pyrazolo[1,5-a][1,3]diazepin-6-yl)-1H-1,2,4-triazole-3-carboxamide], 10 nM; that for `CN1C(=O)[C@@H](NC(=O)c2ncn(Cc3ccccc3)n2)CCn2nc(CC3CC3)cc21` [Example 459, (S)-1-benzyl-N-(2-(cyclopropylmethyl)-4-methyl-5-oxo-5,6,7,8-tetrahydro-4H-pyrazolo[1,5-a][1,3]diazepin-6-yl)-1H-1,2,4-triazole-3-carboxamide], 7 nM.
As for `CCc1cc2n(n1)CCC(NC(=O)c1ncn(Cc3ccccc3)n1)C(=O)N2C` (stereo not shown) [Example 460, 1-Benzyl-N-(2-ethyl-4-methyl-5-oxo-5,6,7,8-tetrahydro-4H-pyrazolo[1,5-a][1,3]diazepin-6-yl)-1H-1,2,4-triazole-3-carboxamide], the Ki worked out at 41 nM.
`CC(C)Oc1cc2n(n1)CCC(NC(=O)c1ncn(Cc3ccccc3)n1)C(=O)N2C` (stereo not shown) [Example 461, 1-Benzyl-N-(2-isopropoxy-4-methyl-5-oxo-5,6,7,8-tetrahydro-4H-pyrazolo[1,5-a][1,3]diazepin-6-yl)-1H-1,2,4-triazole-3-carboxamide]: the Ki amounted to 50 nM.
On to `Cc1nc(C(=O)N[C@H]2CCn3nccc3N(C)C2=O)nn1Cc1ccccc1` [Example 462, (S)-1-Benzyl-5-methyl-N-(4-methyl-5-oxo-5,6,7,8-tetrahydro-4H-pyrazolo[1,5-a][1,3]diazepin-6-yl)-1H-1,2,4-triazole-3-carboxamide], for which the Ki was 33 nM.
The value for `CCc1cc2n(n1)CCC(NC(=O)c1ncn(Cc3ccccc3F)n1)C(=O)N2C` (stereo not shown) [Example 463, N-(2-Ethyl-4-methyl-5-oxo-5,6,7,8-tetrahydro-4H-pyrazolo[1,5-a][1,3]diazepin-6-yl)-1-(2-fluorobenzyl)-1H-1,2,4-triazole-3-carboxamide] was 45 nM.
As to `CCc1cc2n(n1)CC[C@H](NC(=O)c1ncn(Cc3ccccc3F)n1)C(=O)N2C` [Example 464, (S)—N-(2-ethyl-4-methyl-5-oxo-5,6,7,8-tetrahydro-4H-pyrazolo[1,5-a][1,3]diazepin-6-yl)-1-(2-fluorobenzyl)-1H-1,2,4-triazole-3-carboxamide], the Ki is 14 nM.
Take `CN1C(=O)[C@@H](NC(=O)c2nc3n(n2)[C@@H](c2ccccc2F)CC3)CCn2nccc21` [Example 465, (R)-5-(2-fluorophenyl)-N—((S)-4-methyl-5-oxo-5,6,7,8-tetrahydro-4H-pyrazolo[1,5-a][1,3]diazepin-6-yl)-6,7-dihydro-5H-pyrrolo[1,2-b][1,2,4]triazole-2-carboxamide]: the Ki was found to be 9 nM.
The value for `CN1C(=O)[C@@H](NC(=O)c2nc3n(n2)[C@H](c2ccccc2F)CC3)CCn2nccc21` [Example 466, (S)-5-(2-fluorophenyl)-N—((S)-4-methyl-5-oxo-5,6,7,8-tetrahydro-4H-pyrazolo[1,5-a][1,3]diazepin-6-yl)-6,7-dihydro-5H-pyrrolo[1,2-b][1,2,4]triazole-2-carboxamide] was 803 nM; that for `CN1C(=O)[C@@H](NC(=O)c2nc3n(n2)[C@H](c2ccccc2F)CC3)COc2ccccc21` [Example 467, (S)-5-(2-fluorophenyl)-N—((S)-5-methyl-4-oxo-2,3,4,5-tetrahydrobenzo[b][1,4]oxazepin-3-yl)-6,7-dihydro-5H-pyrrolo[1,2-b][1,2,4]triazole-2-carboxamide] was 57 nM.
Take `CN1C(=O)[C@@H](NC(=O)c2nc3n(n2)[C@@H](c2ccccc2F)CC3)COc2ccccc21` [Example 468, (R)-5-(2-fluorophenyl)-N—((S)-5-methyl-4-oxo-2,3,4,5-tetrahydrobenzo[b][1,4]oxazepin-3-yl)-6,7-dihydro-5H-pyrrolo[1,2-b][1,2,4]triazole-2-carboxamide]: the Ki amounted to 4 nM.
The result for `CN1C(=O)[C@@H](NC(=O)c2ncc3n2CC(CC(F)(F)F)CC3)COc2ccccc21` (stereo partly drawn) [Example 469, N-[(3S)-5-methyl-4-oxo-2,3-dihydro-1,5-benzoxazepin-3-yl]-6-(2,2,2-trifluoroethyl)-5,6,7,8-tetrahydroimidazo[1,5-a]pyridine-3-carboxamide] reads 1000 nM.
Consider `CN1C(=O)[C@@H](NC(=O)c2ncn(CC3CCCO3)n2)CCn2nc(C3CC3)cc21` (stereo partly shown) [Example 470], for which the Ki is 2400 nM.
The value for `Cc1cc2n(n1)CC[C@H](NC(=O)c1ncn(Cc3cccc(Cl)c3Cl)n1)C(=O)N2C` [Example 472, 1-[(2,3-dichlorophenyl)methyl]-N-(6S)-2,4-dimethyl-5-oxo-7,8-dihydro-6H-pyrazolo[1,5-a][1,3]diazepin-6-yl-1,2,4-triazole-3-carboxamide] was 5.1 nM.

These data come from patent US10988459B2 (priority 2015, dated 2021).
